Experimental data taken from patent publication US7368286B2, “Method and device for identifying substances capable of modulating adipocyte differentiation” (Genfit, priority 2002, dated 2008).

Test system: aP2 and PPAR GAMMA receptor mRNA in 3T3-L1 cells
Assay: Northern blot of adipocyte markers in 3T3-L1 cells infected with MFG-Neo or MFG-REV retrovirus
Assay type: cell-based
Conditions: control cells (MFG-Neo)
Method: 3T3-L1 cells were infected with either MFG-Neo or MFG-REV retrovirus and treated for 8 days with a mixture containing IBMX and insulin (“Mix”), with or without 1 μM rosiglitazone. mRNA was then extracted and analyzed by Northern blot using the indicated probes.
RNA extraction and Northern blot analyses were carried out according to the previously described method (Staels, B. et al., Arteriosclerosis and Thrombosis 1992, 12(3): 286-294) using rat Rev-erb alpha, murine PPAR gamma and murine aP2, chicken beta-actin and human 36B4 cDNA probes.
Cells post-confluent after two days of culture (designated day D0) were transferred to differentiation medium (DMEM, 10% FCS, 1 μM dexamethasone, 10 μg/ml insulin and 0.5 mM 3-methyl-1-isobutylxanthine (IBMX) (Sigma, St Louis, Mo., USA)) for two days. Cells were then grown in post-differentiation medium (DMEM, 10% FCS, insulin) with or without rosiglitazone. The medium was changed every day. Stable 3T3-L1 pre-adipocytes expressing the REV-ERB ALPHA receptor were grown in the same conditions but differentiated without dexamethasone. After the treatment, cells were fixed with 10% formaldehyde in PBS and stained with Oil Red O (Sigma, St Louis, Mo., USA). Alternatively, total RNA was extracted as described earlier.
3T3-L1 pre-adipocytes were then infected with the resulting virus. […]

With CN(CCOc1ccc(CC2SC(=O)NC2=O)cc1)c1ccccn1 (stereo not shown) [rosiglitazone] the “time until high aP2 and PPAR GAMMA receptor mRNA levels were observed” value was 8 to 12 days.
